Paper PMC11697113, “The Hsc70 system maintains the synaptic SNARE protein SNAP-25 in an assembly-competent state and delays its aggregation [drawing 1]” (The Journal of Biological Chemistry, 2024)

Legend:
[1] = tested on: SNAP-25; test: SNAP-25 aggregation kinetics by optical density; type: biochemical; settings: SNAP-25 (CS mutant) 50 μM alone, 37 °C, shaking 300 rpm, OD 360 nm, 20 mM phosphate buffer pH 7.4, 100 μM MgCl2, 100 mM KCl
Experimental: To test our hypothesis that Hsc70 inhibits SNAP-25 aggregation, we monitored the aggregation kinetics of recombinantly expressed SNAP-25 in the absence and presence of Hsc70 by following optical density at 360 nm (Fig. 2). […] This lag time was elongated to ∼65 h in the presence of Hsc70. In neurons, Hsc70 works in collaboration with its co-chaperone CSPα. […] (Fig. S2A). Apg2 is a member of the Hsp110 family, which is known to suppress protein aggregation ([36]). […] (Fig. S2B).
Figure 2 Hsc70 delays the aggregation of SNAP-25. Aggregation kinetics of SNAP-25 (50 μM) at 37 °C. Optical density of SNAP-25 was recorded at 360 nm in the absence (black) and in the presence of Hsc70 (5 μM, red), and Hsc70+CSPαJ (5 μM each, blue).
Aggregation of SNAP-25 at 50 μM was followed by measuring the A360 in a 96-well plate using a BioTek plate reader (BioTek), at 37 °C with shaking at 300 rpm, in the absence and presence of Hsc70 and CSPαJ at 5 μM each, and Apg2 at 0.5 μM. The aggregation buffer included 20 mM phosphate buffer pH 7.4, 100 μM MgCl2, and 100 mM KCl, and an ATP-experiment was carried out using regeneration system (5 mM 2-phosphoenolpyruvate, 0.05 mg/ml pyruvate kinase, and 5 mM ATP), as described previously ([51]).
Figure SI 2. Apg2 enhances the effect of Hsc70 on SNAP-25. (A) Aggregation kinetics of SNAP-25 (50 μM) at 37 °C. OD600 of SNAP-25 was recorded in the absence (black) and in the presence of Hsc70, Hsc70+CSPa-J (blue) and Hsc70+CSPa-J+Apg2 (turquoise). […]
concentrations are SNAP-25 (50 μM), Hsc70 (5 μM), CSPa-J (5 μM) and Apg2 (0.5 μM).
(B) Aggregation kinetics of SNAP-25 (50 μM) at 37 °C. OD600 of SNAP-25 was recorded in the absence (black) and in the presence of Apg2 (blue). […]

[2] = biological target: T1, Hsc70 (Homo sapiens, UniProt P11142); test: Native PAGE / Western blot of SNAP-25-Hsc70 complex; type: binding; settings: SNAP-25 10 μM, Hsc70 2 μM, anti-Hsc70 and anti-His Western blot
T1 construct: 6X His-tag (TEV-cleavable) (cleaved yes); made in house; host or cells: E. coli Rosetta (DE3)
T1 sequence (P11142 whole entry): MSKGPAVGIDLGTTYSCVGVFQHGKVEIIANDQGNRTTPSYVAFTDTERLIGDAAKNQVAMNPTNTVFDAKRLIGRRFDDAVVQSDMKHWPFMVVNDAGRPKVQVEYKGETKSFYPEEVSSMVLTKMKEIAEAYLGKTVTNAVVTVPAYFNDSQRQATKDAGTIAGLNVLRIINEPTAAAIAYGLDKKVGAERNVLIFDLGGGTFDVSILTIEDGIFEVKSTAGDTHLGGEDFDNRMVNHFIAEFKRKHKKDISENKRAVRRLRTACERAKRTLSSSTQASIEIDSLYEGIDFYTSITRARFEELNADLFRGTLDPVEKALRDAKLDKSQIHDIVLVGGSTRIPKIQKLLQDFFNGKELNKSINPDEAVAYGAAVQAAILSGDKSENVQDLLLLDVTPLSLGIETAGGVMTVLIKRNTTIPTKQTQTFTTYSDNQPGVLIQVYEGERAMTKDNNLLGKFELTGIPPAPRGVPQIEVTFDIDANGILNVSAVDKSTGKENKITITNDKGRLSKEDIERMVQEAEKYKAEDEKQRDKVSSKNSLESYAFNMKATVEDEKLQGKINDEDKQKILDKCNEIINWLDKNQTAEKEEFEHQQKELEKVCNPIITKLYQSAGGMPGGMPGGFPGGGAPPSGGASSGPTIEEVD
Experimental: Figure 3 Hsc70 forms complexes with SNAP-25.A, native PAGE of SNAP-25 (10 μM) in the presence and absence of Hsc70 (2 μM). The difference in signal intensity of His-SNAP25 probed with antibody is likely due to altered epitope exposure upon formation of the SNAP-25-Hsc70 complex. B, binding of SNAP-25 (black), SNAP-25 SNN (SNNFR, orange), and SNC (SNCFR, green)) fragments to Hsc70 by competition followed by fluorescence anisotropy. Increasing concentrations of the competitors were added to a complex of Hsc70 (5 μM) and FITC-p5 peptide (50 nM). Error bars represent SDs from three independent experiments.
Precast native PAGE gels (Bio-Rad, 4–20%) were used to separate proteins based on their conformation and charge. SNAP-25 (10 μM), Hsc70 (2 μM) and a mix of both samples were mixed with a nondenaturing loading buffer and directly loaded onto the gel without heating. Electrophoresis was carried out in Tris-glycine running buffer at 180V for approximately 1 h until the dye front reached the bottom of the gel. Gels were stained with Coomassie Brilliant Blue R-250 (Sigma-Aldrich) and destained in a methanol-acetic acid solution until clear bands were visible.

[3] = tested on: SNARE complex with syntaxin and synaptobrevin; test: SDS-resistant SNARE complex formation (SDS-PAGE); type: biochemical; settings: without Hsc70, mixed with syntaxin and synaptobrevin, 1 M NaCl, 4 °C
Experimental: We took aliquots of SNAP-25 at different time points of the aggregation reaction (at 0 h, in lag phase and at 64 h in the log or saturation phase, Fig. 2A) and mixed them with the SNARE motifs of syntaxin and synaptobrevin to allow the formation of the SNARE complex.
Figure 6 Hsc70 facilitates incorporation of SNAP-25 into the SNARE complex in vitro. SDS-PAGE of SNAP-25 taken from the aggregation reactions (Fig. 2) at 0 h and 64 h after the initiation, without (left) and with Hsc70 (right), and mixed with syntaxin and synaptobrevin for the time indicated below each SDS-PAGE. SNAP-25 is expressed and purified from E. coli; a minor amount of the bacterial Hsp70 homolog DnaK (∼70 kDa) may copurify with SNAP-25, explaining the presence of higher molecular weight bands, with its proteolysis potentially occurring during ∼64-h SNAP-25 aggregation reactions. For synaptobrevin, we attribute the higher molecular weight bands to incomplete cleavage of GST-tagged synaptobrevin.
The SNARE motifs were mixed in an equimolar ratio in the following order: synaptobrevin-2 (29–93), syntaxin-1A (191–253), and SNAP-25 taken from the aggregation reaction, in the presence of 1 M NaCl. The assembly reaction was incubated at 4 °C overnight while rotating. The SNARE motifs were concentrated using a 30-kDa molecular weight cutoff Amicon centrifugation filters and run on 4 to 20% gradient SDS-PAGE.

[4] = tested on: SNAP-25; test: Far-UV CD; type: physicochemical; settings: far-UV CD 200–250 nm, 22 °C (Fig. S1)
Experimental: SNAP-25 has four native cysteines that are palmitoylated upon interaction with the membrane. […] For all of our studies, the SNAP-25 CS mutant was used unless otherwise mentioned.
The far-UV CD spectra (200–250 nm) were recorded on a Jasco J-1500 Circular Dichroism Spectrophotometer at 22 °C. The SNAP-25 WT, SNAP-25, and mixture of SNAP-25 and Hsc70 were taken in a 1 mm path length quartz cuvette. Figures show the average of ten scans where the buffer baselines were subtracted. Data were plotted using software using the Origin (Pro) program (OriginLab Corp).

[5] = tested on: SNAP-25; settings: also Fig. S1; cited from earlier work
Description: SNAP-25 has four native cysteines that are palmitoylated upon interaction with the membrane. […] For all of our studies, the SNAP-25 CS mutant was used unless otherwise mentioned. We assessed formation of the Hsc70-SNAP-25 complex by CD and found no significant conformational ...

With “synaptosomal-associated 25 kDa protein [SNAP-25]” the “lag phase of SNAP-25 aggregation” value [1] was ~38 h, the “complex formation of His-SNAP-25 with Hsc70” value [2] was “a complex can be seen” and the “SNARE complex formation by SNAP-25 taken at 0 h of aggregation” value [3] was “forms SDS-resistant SNARE complexes”. For the same substance, the “SNARE complex formation by SNAP-25 taken at 64 h of aggregation” value [3] was “unable to form the SNARE complexes”, the “conformational change upon Hsc70-SNAP-25 interaction” value [4] was “no significant conformational change” and the “secondary structure by CD” value [5] was “disordered with nascent helical tendencies”.
